Data from US11166464B2, “Self-assembled active agents” (priority 2017, dated 2021).
Marks after values point to notes of the source that are not given here.

What was measured:
Pseudomonas aeruginosa = experiment: MIC and synergy (1/FICI) in cation-adjusted Mueller-Hinton broth, abs600 after 24 h; format: cell-based; settings: for MIC (wt %): component alone, 24 h, 37° C.
Description: (§1) To compare antimicrobial efficacy of self-assembled complexes to their components, fractional inhibitory concentration indices (FICIs) were calculated from measured minimum inhibitory concentrations (MICs) against Pseudomonas aeruginosa and Escherichia coli. The MIC of each substance was determined according to standard guidelines in cation-adjusted Mueller-Hinton broth at a total volume of ˜100 μl with test concentrations decreasing two-fold to span the empirically-determined MIC (J. Med. Chem., 59: 2126-2138 (2016)). Wells contained starting microbe concentrations of approximately 10^7 cells/mL. Absorbance at 600 nm (abs600) was determined immediately after inoculation using a 96 well plate reader. Plates were incubated at 37° C. and abs600 measured after 24 hours. For the purposes of these experiments, minimum inhibitory concentrations are defined as the minimum concentration observed to inhibit microbial growth over this time span, with a change in abs600 less than or equal to 0.1.
Following MIC testing, FICI were calculated as shown in Equation 1: […]
The FICI can be used to quantify the synergy between two components (X and Y). Specifically, 1/FICI can be used as a measure of synergy, interpreted as factors by which the potency of a given combination is greater than the sum of its parts (see Journal of Antimicrobial Chemotherapy, 52:1 (2003)). For example, in the present invention, synergy may be found when the effective amount of the self-assembled active agent is lower than the sum of the effective amounts of the two or more component molecules.
(§2) For the data in Table 2, when multiple components were used to form a complex, the amine component was present in excess of a 1:1 molar ratio.
The MICs determined as per above were then used to calculate FICIs. Note that 1/FICI values varied with subcomponent ratio; unless otherwise noted, the values shown in Table 3 represent a molar ratio of 6:1, amine:aldehyde.

[1] = system: Aspergillus brasiliensis (ATCC 16404); experiment: Viability of microbes in formula over time (log reduction in cell count); format: cell-based; settings: seven days, initial 5 × 10^6 cells/mL; for Log Reduction in APC formula: aminoguanidine complex of the listed aldehyde at 0.1 wt % in all-purpose cleaner; for Log Reduction in MDC formula: aminoguanidine complex of the listed aldehyde at 0.1 wt % in manual dish formula
Description: […] The total volume of the mixture was 5 mL. The inoculated mixture was kept in a shaker at 30° C. for 7 days. Microorganism viability was determined by plating […] of inoculated mixture on MH agar plates on days 0, 3, and 7.
A. Brasiliensis cell counts were monitored and counted over seven days.

Escherichia coli = experiment: MIC in cation-adjusted Mueller-Hinton broth, abs600 after 24 h; format: cell-based; settings: amine + aldehyde combined, amine in excess of 1:1 molar ratio, E. coli
Description: as §1, §2

[2] = system: Aspergillus brasillensis, ATCC16404; experiment: Preservative test in home cleaning formulations; format: cell-based, Aspergillus brasiliensis; settings: aminoguanidine adducts of the named hydrophilic aldehydes
[3] = system: A. brasiliensis ATCC16404; experiment: MIC of aminoguanidine-aldehyde adducts, actives dissolved in all-purpose cleaner and diluted in MH broth; format: cell-based, Aspergillus brasiliensis; settings: aminoguanidine adduct of the listed aldehyde; 4 × 10^5 spores/mL starting spore counts; Table 4
Description: General procedure for preparation of actives: Complexes were formed by treating 20 mg of aldehyde or ketone with 180 mg of aminoguanidine HCl stock solution (37 wt % aminoguanidine HCl in dH2O) and heating at 60° C. for 48 h. The resulting product mixtures were subsequently screened for antimicrobial activity.

[4] = system: A. brasiliensis ATCC16404; experiment: as above; format: cell-based, Aspergillus brasiliensis; settings: subcomponent alone (parent aldehyde, aminoguanidine or biocide standard), not the complex; Table 5

glyoxal [Entry 1]
MIC (wt %) (Pseudomonas aeruginosa; P. aeruginosa): 0.04^i wt %

NC(N)=NN=Cc1ccc(C=NN=C(N)N)cc1 [B + 5]
MIC (wt %) of complex, given as aldehyde component (Pseudomonas aeruginosa; amine + aldehyde combined, amine in excess of 1:1 molar ratio, concentration of aldehyde component, P. aeruginosa): 0.01^i wt %
MIC (wt %) of complex, given as amine component (Pseudomonas aeruginosa; amine + aldehyde combined, amine in excess of 1:1 molar ratio, concentration of amine component, P. aeruginosa): 0.06^i wt %

O=Cc1cccc(C=O)c1Br [2-bromoisophthalaldehyde]
Log Reduction in APC formula [1]: 2
Log Reduction in MDC formula [1]: 1

O=Cc1cc(C=O)cc(C=O)c1 [Entry 7, benzene-1,3,5-tricarboxaldehyde]
MIC (wt %) (Pseudomonas aeruginosa; P. aeruginosa): 0.3^i wt %
Synergism (1/FICI) with B, extrapolated (Pseudomonas aeruginosa; extrapolated from eight FICI measurements where the weight ratio of B:7 varied from 1:1 to 9:1): 1000*

Cc1cc(C=NN=C(N)N)c(O)c(C=NN=C(N)N)c1 [B + 10]
MIC (wt %) of complex, given as aldehyde component (Escherichia coli; concentration of aldehyde component): 0.002^ii wt %
MIC (wt %) of complex, given as amine component (Escherichia coli; concentration of amine component): 0.02^ii wt %

O=Cc1ccc(C=O)s1 [2,5-thiophenedicarboxaldehyde]
Log Reduction in APC formula [1]: 2
Log Reduction in MDC formula [1]: 1

O=Cc1ccc(C=O)o1 [2,5-furandicarboxaldehyde]
Log Reduction in APC formula [1]: 1
Log Reduction in MDC formula [1]: 1

Cl.N=C(NN)NN [A, 1,3-diaminoguanidine]
MIC (wt %) (Pseudomonas aeruginosa; P. aeruginosa): 0.3^i wt %

2,6-dimethoxybenzaldehyde
Preservation of the high surfactant manual dish formula [2]: enabled effective preservation
MIC (wt %) [3]: 0.0149 wt %

COc1ccc(C=O)c(OC)c1 [2,4-dimethoxybenzaldehyde]
Log Reduction in APC formula [1]: 6
Log Reduction in MDC formula [1]: 1

aminoguanidine [B]
MIC (wt %) (Pseudomonas aeruginosa; P. aeruginosa): >2^i wt %
MIC (wt %) subcomponent [4]: >0.4762 wt %

m-anisaldehyde
Preservation of the high surfactant manual dish formula [2]: enabled effective preservation
MIC (wt %) [3]: 0.0595 wt %

4-hydroxybenzaldehyde
Preservation of the high surfactant manual dish formula [2]: enabled effective preservation
MIC (wt %) [3]: 0.0298 wt %

O=Cc1ccc(C=O)cc1 [Entry 5, terephthalaldehyde]
MIC (wt %) (Pseudomonas aeruginosa; P. aeruginosa): 0.3^i wt %

2,4,6-trimethoxybenzaldehyde
Preservation of the high surfactant manual dish formula [2]: enabled effective preservation
MIC (wt %) [3]: 0.0595 wt %

2-hydroxyl-4-methoxybenzaldehyde
Log Reduction in APC formula [1]: 1
Log Reduction in MDC formula [1]: 1
MIC (wt %) [3]: 0.0149 wt %

vanillin isobutyrate
MIC (wt %) [3]: 0.1190 wt %
